Results published in US9682965B2, “Fumagillol heterocyclic compounds and methods of making and using same” (Zafgen, Inc., priority 2015, dated 2017).
Where a name gives a salt, the structure may show the parent alone. Read-outs that look alike come from different tables or passages of the source.

Columns and labels:
recombinant human MetAP2 = recombinant human MetAP2 (Homo sapiens (Human), UniProt P50579); assay: recombinant human MetAP2 enzyme inhibition assay; type: biochemical; details: recombinant human MetAP2, MAS peptide substrate, 25 minutes at 25° C
Sequence of recombinant human MetAP2 (P50579 whole entry): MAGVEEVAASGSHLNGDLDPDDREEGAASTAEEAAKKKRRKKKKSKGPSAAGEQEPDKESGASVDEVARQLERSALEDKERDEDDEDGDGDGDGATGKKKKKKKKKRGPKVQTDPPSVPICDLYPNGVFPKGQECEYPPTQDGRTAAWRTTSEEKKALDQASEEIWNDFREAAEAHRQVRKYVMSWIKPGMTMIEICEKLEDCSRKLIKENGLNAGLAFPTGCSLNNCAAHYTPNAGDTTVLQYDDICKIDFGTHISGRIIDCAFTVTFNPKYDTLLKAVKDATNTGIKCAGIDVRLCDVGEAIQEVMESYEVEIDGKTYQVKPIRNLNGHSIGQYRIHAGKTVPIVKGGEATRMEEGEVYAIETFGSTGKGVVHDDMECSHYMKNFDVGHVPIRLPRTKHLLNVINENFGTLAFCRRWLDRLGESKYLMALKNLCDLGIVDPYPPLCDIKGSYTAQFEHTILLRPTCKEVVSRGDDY
Experimental: Compounds are tested for their capacity to inhibit recombinant human MetAP2 activity using the following assay.
Flag tagged Human recombinant MetAP2 expressed and isolated for use as the enzyme source. 10 mM stock solutions of compounds were prepared in 100% DMSO and further diluted in 100% DMSO required concentration to 1 mM stocks. The stock compound solutions and DMSO vehicle controls were diluted to target final compound concentrations using assay buffer to a final concentration of 50 mM HEPES containing 100 mM NaCl, pH adjusted to 7.5. The MAS peptide was formulated to a 7.5 mM stock in distilled water and prior to use further diluted 1:4. […] 40 μl of enzyme was mixed with 100 μl of MnCl2 then further diluted in assay buffer to a final concentration of 16 μg/ml. To test for compound effect on MetAP2 enzyme activity, 5 μl of test compound, 10 μl of MAS substrate/amino acid oxidase mixture, 10 μl of MetAP2 was added to test wells in a 384 well black plate with blank wells containing no enzyme, replaced with 10 μl of assay buffer. All compounds were tested in duplicate on two occasions on the same day.
The plate was sealed with a TopSeal A cover and mixed briefly on an orbital mixer at 900 rpm. The plate was incubated for a further 25 minutes at 25° C. A 5× stock of Amplex buffer was prepared (0.25M sodium phosphate, pH 7.4) and stored at 4° C. […] 25 μl detection reagent was added to each well of the test plate, which was re-sealed and mixed briefly on an orbital shaker.

[1] = test system: Diet Induced Obese (DIO) C57BL/6 mice; assay: 10 day DIO mouse model (body weight, food intake, hematology, blood chemistry); type: in vivo; details: 240 h, DIO mouse, once a day for 10 days, read-out: DIO Mouse 10-day weight loss vs vehicle; for inhibition in vivo at 0.3 mg/kg: 0.3 mpk sc
In short: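 DIO C57BL/6 mice on 60% kcal fat diet received compounds subcutaneously once daily for 10 days at 1.0, 0.5, 0.3, 0.1 or 0.03 mpk, in 10% DMSO in water, after 3-day vehicle acclimation. Body weight and food intake were recorded daily. Hematology and blood chemistry were taken on Day 11, 24 h post-final dose.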

[2] = test system: Male Sprague Dawley rats on high fat diet; assay: 11 day rat DIO model (body weight, food intake, hematology, blood chemistries); type: in vivo; details: 264 h, DIO rat, once a day for 11 days, read-out: DIO Rat 11-day weight loss vs vehicle; for inhibition in vivo at 0.3 mg/kg: 0.3 mpk sc; for inhibition in vivo at 1 mg/kg: 1.0 mpk sc
Text: The objective of this study design is to investigate the efficacy of disclosed compounds in an 11 day rat DIO model used to screen compounds for pharmacologic efficacy on endpoints related to obesity and metabolism. Effects on body weight, food intake, hematology and blood chemistries were the primary readouts of this study design. […] Rats were fed Research Diets D12451 (45% High Fat) and provided water ad libitum. Rats were received and housed in the facility for at least two or three weeks prior to start of test article administration. On Day −4 or −3, rats were randomized into study groups based on body weight and body weights were continued to be recorded daily for the duration of the study. Daily food intake was assessed starting on Study Day −2 by weighing the hopper including the food to avoid loss of food in transfer.
Compounds were formulated into a 100% DMSO stock (at 9 mg/mL) prior to the start, and further diluted into the target working concentration using the vehicle of 10% DMSO in water. Prior to test article administration, starting on Day −3 a dosing acclimation occured with all animals receiving a subcutaneous injection of vehicle (10% DMSO) only for 3 days. Starting on Day 1, test compounds or vehicle were administered based on individual body weight, subcutaneously, once a day for 11 days. All animals were sacrificed on Day 11, approximately 2 hours following the final dosing on Day 11. After sacrifice, whole blood was collected and analyzed for hematology and blood chemistry parameters.
Compounds were tested vs. vehicle at various doses (1.0, 0.5, 0.3, 0.1, 0.03 mpk sc (mg per kg animal weight delivered subcutaneously), and the results are shown in Table 2 below.

| SMILES | IC50 (recombinant human MetAP2) [µM] | inhibition in vivo at 0.3 mg/kg [1] [%] | inhibition in vivo at 0.3 mg/kg [2] [%] | other results |
| --- | --- | --- | --- | --- |
| CCN(CC)CCC1CCN(C(=O)O[C@@H]2CC[C@]3(CO3)[C@@H]([C@@]3(C)O[C@@H]3CC=C(C)C)[C@@H]2OC)C1 (stereo in doubt) [Example 56, (S)-(3R,4S,5S,6R)-5-methoxy-4-((2R,3R)-2-methyl-3-(3-methylbut-2-en-1-yl)oxiran-2-yl)-1-oxaspiro[2.5]octan-6-yl 3-(2-(diethylamino)ethyl)pyrrolidine-1-carboxylate] | < 0.05 | 7.2 |  |  |
| CO[C@@H]1[C@H](OC(=O)N2CC(CCN3CCCCC3)C2)CC[C@]2(CO2)[C@H]1[C@@]1(C)O[C@@H]1CC=C(C)C [Example 4, (3R,4S,5S,6R)-5-methoxy-4-((2R,3R)-2-methyl-3-(3-methylbut-2-enyl)oxiran-2-yl)-1-oxaspiro[2.5]octan-6-yl 3-(2-(piperidin-1-yl)ethyl)azetidine-1-carboxylate formate] | < 0.05 | 4.1 |  |  |
| CO[C@@H]1[C@H](OC(=O)N2CC(CCN3CCC3)C2)CC[C@]2(CO2)[C@H]1[C@@]1(C)O[C@@H]1CC=C(C)C [Example 5, (3R,4S,5S,6R)-5-methoxy-4-((2R,3R)-2-methyl-3-(3-methylbut-2-en-1-yl)oxiran-2-yl)-1-oxaspiro[2.5]octan-6-yl 3-(2-(azetidin-1-yl)ethyl)azetidine-1-carboxylate] | < 0.05 | 4.3 |  |  |
| CO[C@@H]1[C@H](OC(=O)N2CC(CCN3CCC(O)CC3)C2)CC[C@]2(CO2)[C@H]1[C@@]1(C)O[C@@H]1CC=C(C)C [Example 7, (3R,4S,5S,6R)-5-methoxy-4-((2R,3R)-2-methyl-3-(3-methylbut-2-en-1-yl)oxiran-2-yl)-1-oxaspiro[2.5]octan-6-yl 3-(2-(4-hydroxypiperidin-1-yl)ethyl)azetidine-1-carboxylate] | < 0.05 |  |  | inhibition in vivo at 0.3 mg/kg ([1]; Mus musculus, sc): 1.8% |
| CO[C@@H]1[C@H](OC(=O)N2CC(CCN3CCC(C)(O)CC3)C2)CC[C@]2(CO2)[C@H]1[C@@]1(C)O[C@@H]1CC=C(C)C [Example 8, (3R,4S,5S,6R)-5-methoxy-4-((2R,3R)-2-methyl-3-(3-methylbut-2-enyl)oxiran-2-yl)-1-oxaspiro[2.5]octan-6-yl 3-(2-(4-hydroxy-4-methylpiperidin-1-yl)ethyl)azetidine-1-carboxylate] | < 0.05 | 4.9 |  | inhibition in vivo at 1 mg/kg ([1]; 1.0 mpk sc): 17.3% |
| CCN(CC)CCCC1(O)CN(C(=O)O[C@@H]2CC[C@]3(CO3)[C@@H]([C@@]3(C)O[C@@H]3CC=C(C)C)[C@@H]2OC)C1 [Example 61, (3R,4S,5S,6R)-5-methoxy-4-((2R,3R)-2-methyl-3-(3-methylbut-2-enyl)oxiran-2-yl)-1-oxaspiro[2.5]octan-6-yl 3-(3-(diethylamino)propyl)-3-hydroxyazetidine-1-carboxylate] | < 0.05 |  |  |  |
| CO[C@@H]1[C@H](OC(=O)N2CC(OC(=O)N3CCOCC3)C2)CC[C@]2(CO2)[C@H]1[C@@]1(C)O[C@@H]1CC=C(C)C [Example 71, 1-(((3R,4S,5S,6R)-5-methoxy-4-((2R,3R)-2-methyl-3-(3-methylbut-2-enyl)oxiran-2-yl)-1-oxaspiro[2.5]octan-6-yloxy)carbonyl)azetidin-3-yl morpholine-4-carboxylate formate] |  | 8.9 | 10.3 | inhibition in vivo at 1 mg/kg [2]: 10.3% |
| CO[C@@H]1[C@H](OC(=O)N2CC(OC(=O)N3CCN(CC(F)F)CC3)C2)CC[C@]2(CO2)[C@H]1[C@@]1(C)O[C@@H]1CC=C(C)C [Example 80, 1-(((3R,4S,5S,6R)-5-methoxy-4-((2R,3R)-2-methyl-3-(3-methylbut-2-enyl)oxiran-2-yl)-1-oxaspiro[2.5]octan-6-yloxy)carbonyl)azetidin-3-yl 4-(2,2-difluoroethyl)piperazine-1-carboxylate] |  | 16.5 | 7.3 |  |
| CO[C@@H]1[C@H](OC(=O)N2CC(CCC3CCN(CC(F)F)CC3)C2)CC[C@]2(CO2)[C@H]1[C@@]1(C)O[C@@H]1CC=C(C)C [Example 91, (3R,4S,5S,6R)-5-methoxy-4-((2R,3R)-2-methyl-3-(3-methylbut-2-enyl)oxiran-2-yl)-1-oxaspiro[2.5]octan-6-yl 3-(2-(1-(2,2-difluoroethyl)piperidin-4-yl)ethyl)azetidine-1-carboxylate formate] |  | 29.7 | 17.2 |  |
| CO[C@@H]1[C@H](OC(=O)N2CC(CN3CCOCC3)C2)CC[C@]2(CO2)[C@H]1[C@@]1(C)O[C@@H]1CC=C(C)C [Example 95, (3R,4S,5S,6R)-5-methoxy-4-((2R,3R)-2-methyl-3-(3-methylbut-2-enyl)oxiran-2-yl)-1-oxaspiro[2.5]octan-6-yl 3-(morpholinomethyl)azetidine-1-carboxylate] |  | 14.7 | 3 |  |
| CO[C@@H]1[C@H](OC(=O)N2CC(Nc3ccccn3)C2)CC[C@]2(CO2)[C@H]1[C@@]1(C)O[C@@H]1CC=C(C)C [Example 98, (3R,4S,5S,6R)-5-methoxy-4-((2R,3R)-2-methyl-3-(3-methylbut-2-enyl)oxiran-2-yl)-1-oxaspiro[2.5]octan-6-yl 3-(pyridin-2-ylamino)azetidine-1-carboxylate] |  | 12.6 | 1.2 |  |
| CO[C@@H]1[C@H](OC(=O)N2CC(Cc3ccccn3)C2)CC[C@]2(CO2)[C@H]1[C@@]1(C)O[C@@H]1CC=C(C)C [Example 100, (3R,4S,5S,6R)-5-methoxy-4-((2R,3R)-2-methyl-3-(3-methylbut-2-en-1-yl)oxiran-2-yl)-1-oxaspiro[2.5]octan-6-yl 3-(pyridin-2-ylmethyl)azetidine-1-carboxylate] |  | 9.8 | 5.5 |  |
| CCN(CC)CCC1CCN1C(=O)O[C@@H]1CC[C@]2(CO2)[C@@H]([C@@]2(C)O[C@@H]2CC=C(C)C)[C@@H]1OC (stereo partly drawn) [Example 106, (3R,4S,5S,6R)-5-methoxy-4-((2R,3R)-2-methyl-3-(3-methylbut-2-enyl)oxiran-2-yl)-1-oxaspiro[2.5]octan-6-yl 2-(2-(diethylamino)ethyl)azetidine-1-carboxylate] |  |  |  | inhibition in vivo at 0.1 mg/kg ([1]; Mus musculus, sc, 0.1 mpk sc): 2%; inhibition in vivo at 0.5 mg/kg ([2]; 0.5 mpk sc): 4.82% |
| CO[C@@H]1[C@H](OC(=O)N2CC(CCN3CC(F)(F)C3)C2)CC[C@]2(CO2)[C@H]1[C@@]1(C)O[C@@H]1CCC(C)C [Example 126, (3R,4S,5S,6R)-4-((2R,3R)-3-isopentyl-2-methyloxiran-2-yl)-5-methoxy-1-oxaspiro[2.5]octan-6-yl3-(2-(3,3-difluoroazetidin-1-yl)ethyl)azetidine-1-carboxylate] |  | 13.2 | 7.4 | inhibition in vivo at 1 mg/kg [2]: 9.1% |
| CO[C@@H]1[C@H](OC(=O)N2CC(CCN3CCOCC3)C2)CC[C@]2(CO2)[C@H]1[C@@]1(C)O[C@@H]1CCC(C)C [Example 127, (3R,4S,5S,6R)-4-((2R,3R)-3-isopentyl-2-methyloxiran-2-yl)-5-methoxy-1-oxaspiro[2.5]octan-6-yl 3-(2-morpholinoethyl)azetidine-1-carboxylate] |  | 15.2 | 6.1 | inhibition in vivo at 1 mg/kg [2]: 10.7% |
